In data set [1] the target is HCV NS3/4A protease (Hepatitis C virus genotype 1a (isolate H77) (HCV), UniProt P27958). Kind of data set: Inhibition assay (enzymatic assay) of full-length NS3 protease with NS4A cofactor. In kind it is biochemical. Conditions: full-length NS3 protease 1 nM, 25 μM NS4A cofactor, depsipeptide substrate, competitive inhibition model; read-out: Ki (μM) Enzymatic assay. How it is done:
[Landro, 1997 #Biochem 36 9340-9348]. […] The solutions were stored at −20° C. between measurements.
[Liu, 1999 Analytical Biochemistry 267 331-335].

The test system of data set [2] is HCV type 1b replicon in Huh-7 luc/neo (Huh-Luc) cells. Description: Replicon assay: inhibition of HCV RNA replication in Huh-Luc cells (luciferase). In kind it is cell-based. Conditions: luciferase activity, incubation of three days. Here is the method:
The in vitro antiviral activity against HCV of the compounds of formula (I) was tested in a cellular HCV replicon system based on Lohmann et al. (1999) Science 285:110-113, with the further modifications described by Krieger et al. (2001) Journal of Virology 75: 4614-4624, which is further exemplified in the examples section. This model, while not a complete infection model for HCV, is widely accepted as the most robust and efficient model of autonomous HCV RNA replication currently available. […] It will be appreciated that it is important to distinguish between compounds that specifically interfere with HCV functions from those that exert cytotoxic or cytostatic effects in the HCV replicon model, and as a consequence cause a decrease in HCV RNA or linked reporter enzyme concentration. Assays are known in the field for the evaluation of cellular cytotoxicity based for example on the activity of mitochondrial enzymes using fluorogenic redox dyes such as resazurin. Furthermore, cellular counter screens exist for the evaluation of non-selective inhibition of linked reporter gene activity, such as firefly luciferase. Appropriate cell types can be equipped by stable transfection with a luciferase reporter gene whose expression is dependent on a constitutively active gene promoter, and such cells can be used as a counter-screen to eliminate non-selective inhibitors.
The compounds of formula (I) were examined for activity in the inhibition of HCV RNA replication in a cellular assay. […] The cellular assay was based on a bicistronic expression construct, as described by Lohmann et al. (1999) Science vol. 285 pp. 110-113 with modifications described by Krieger et al. (2001) Journal of Virology 75: 4614-4624, in a multi-target screening strategy. In essence, the method was as follows.
The assay utilized the stably transfected cell line Huh-7 luc/neo (hereafter referred to as Huh-Luc). This cell line harbors an RNA encoding a bicistronic expression construct comprising the wild type NS3-NS5B regions of HCV type 1b translated from an Internal Ribosome Entry Site (IRES) from encephalomyocarditis virus (EMCV), preceded by a reporter portion (FfL-luciferase), and a selectable marker portion (neo^R, neomycine phosphotransferase). The construct is bordered by 5′ and 3′ NTRs (non-translated regions) from HCV type 1b. Continued culture of the replicon cells in the presence of G418 (neo^R) is dependent on the replication of the HCV RNA. The stably transfected replicon cells that express HCV RNA, which replicates autonomously and to high levels, encoding inter alia luciferase, are used for screening the antiviral compounds.
The replicon cells were plated in 384 well plates in the presence of the test and control compounds which were added in various concentrations. Following an incubation of three days, HCV replication was measured by assaying luciferase activity (using standard luciferase assay substrates and reagents and a Perkin Elmer ViewLux™ ultraHTS microplate imager). Replicon cells in the control cultures have high luciferase expression in the absence of any inhibitor. The inhibitory activity of the compound on luciferase activity was monitored on the Huh-Luc cells, enabling a dose-response curve for each test compound.
For orientation: A replicon is a self-replicating genome or part of one, used to study replication in cells.

The conditions of data set [3]: rcm bond, 14-membered ring, 1,2-dichloroethane.

For orientation: Ki means a dissociation constant, usually derived from enzyme kinetics or from competition with a known ligand. In general, EC50 refers to the concentration that produces a half-maximal response. A lower EC50 goes with greater potency.

Read-outs that look alike come from different tables or passages of the source.

HCV NS3/4A protease, sequence (P27958 1027-1657): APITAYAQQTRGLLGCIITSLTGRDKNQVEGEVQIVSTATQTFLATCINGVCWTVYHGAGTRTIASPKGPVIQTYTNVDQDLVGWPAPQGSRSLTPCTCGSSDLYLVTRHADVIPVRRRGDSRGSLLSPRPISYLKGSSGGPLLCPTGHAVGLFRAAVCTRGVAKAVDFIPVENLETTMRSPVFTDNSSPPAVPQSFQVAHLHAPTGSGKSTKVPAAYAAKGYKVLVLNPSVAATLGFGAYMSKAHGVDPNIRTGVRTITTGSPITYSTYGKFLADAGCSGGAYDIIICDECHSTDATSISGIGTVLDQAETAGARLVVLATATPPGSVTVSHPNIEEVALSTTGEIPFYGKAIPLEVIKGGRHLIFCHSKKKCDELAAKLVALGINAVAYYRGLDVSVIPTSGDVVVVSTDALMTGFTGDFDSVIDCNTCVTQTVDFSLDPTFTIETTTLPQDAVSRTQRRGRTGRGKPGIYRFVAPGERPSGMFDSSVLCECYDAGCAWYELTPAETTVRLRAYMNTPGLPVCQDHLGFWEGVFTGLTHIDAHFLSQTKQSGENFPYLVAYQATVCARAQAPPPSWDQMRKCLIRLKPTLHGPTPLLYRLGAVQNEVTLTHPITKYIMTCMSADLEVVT

Take `COc1ccc2c(O[C@@H]3C[C@H]4C(=O)N[C@]5(C(=O)NS(=O)(=O)C6CC6)C[C@H]5/C=C\CCCCCNC(=O)N4C3)cc(-c3nc(C(C)C)cs3)nc2c1Cl` (stereo in doubt) [Compound 94, N-[[18-[8-chloro-2-[4-(isopropyl)thiazol-2-yl]-7-methoxyquinolin-4-yloxy]-2,15-dioxo-3,14,16-triazatricyclo[14.3.0.0^4,6]nonadec-7-en-4-yl]carbonyl]-(cyclopropyl)sulfonamide]: in data set [1], the Ki was found to be 0.1 nM. Also, in data set [2] (Hepatitis C virus, Huh-7, 72 h), the midpoint of the response, the EC50, lay at 0.00326 µM.
Regarding `COc1ccc2c(O[C@@H]3C[C@H]4C(=O)N[C@]5(C(=O)O)C[C@H]5/C=C\CCCCN(C)C(=O)[C@@H]4C3)cc(-c3nc(C(C)C)cs3)nc2c1Cl` [Compound 55, 17-[8-chloro-2-(4-isopropylthiazole-2-yl)-7-methoxyquinolin-4-yloxy]-13-methyl-2,14-dioxo-3,13-diazatricyclo[13.3.0.0^4,6]octadec-7-ene-4-carboxylic acid], the Ki in data set [1] amounted to 5 nM. The same compound returned a half-maximal effective concentration (EC50) in data set [2] (Hepatitis C virus, Huh-7, 72 h) of 0.367 µM.
For the compound `COc1ccc2c(O[C@@H]3C[C@H]4C(=O)N[C@]5(C(=O)O)C[C@H]5/C=C\CCCCN(C)C(=O)[C@@H]4C3)cc(-c3nccs3)nc2c1C` [Compound 29, 17-[7-methoxy-8-methyl-2-(thiazol-2-yl)quinolin-4-yloxy]-13-methyl-2,14-dioxo-3,13-diazatricyclo[13.3.0.0^4,6]octadec-7-ene-4-carboxylic acid], in data set [2] (Hepatitis C virus, Huh-7, 72 h), the EC50 worked out at 10 µM.
As to `COc1ccc2c(O[C@@H]3C[C@H]4C(=O)N[C@]5(C(=O)NS(=O)(=O)C6(C)CC6)C[C@H]5/C=C\CCCCN(C)C(=O)[C@@H]4C3)cc(-c3nc(C(C)C)cs3)nc2c1C` [Compound 48, N-[17-[2-(4-isopropylthiazole-2-yl)-7-methoxy-8-methylquinolin-4-yloxy]-13-methyl-2,14-dioxo-3,13-diazatricyclo[13.3.0.0^4,6]octadec-7-ene-4-carbonyl](1-methylcyclopropyl)sulfonamide], in data set [1], the Ki came out at 0.25 nM. In data set [2] (Hepatitis C virus, Huh-7, 72 h), the EC50 was 0.00233 µM.
In turn, `COc1ccc2c(O[C@@H]3C[C@H]4C(=O)N[C@]5(C(=O)O)C[C@H]5/C=C\CCCCN(C)C(=O)[C@@H]4C3)cc(-c3nc(C(C)C)cs3)nc2c1C` [Compound 46, 17-[2-(4-isopropylthiazole-2-yl)-7-methoxy-8-methyl-quinolin-4-yloxy]-13-methyl-2,14-dioxo-3,13-diazatricyclo[13.3.0.0^4,6]octadec-7-ene-4-carboxylic acid] returned an EC50 in data set [2] (Hepatitis C virus, Huh-7, 72 h) of 0.91 µM.
As to `COc1ccc2c(O[C@@H]3C[C@H]4C(=O)N[C@]5(C(=O)NS(=O)(=O)C6(C)CC6)C[C@H]5/C=C\CCCCCNC(=O)N4C3)cc(-c3nc(C(C)C)cs3)nc2c1Cl` (stereo in doubt) [Compound 95, N-[[18-[8-chloro-2-[4-(isopropyl)thiazol-2-yl]-7-methoxyquinolin-4-yloxy]-2,15-dioxo-3,14,16-triazatricyclo[14.3.0.0^4,6]nonadec-7-en-4-yl]carbonyl](1-methylcyclopropyl)sulfonamide], the Ki in data set [1] stood at 0.1 nM. The compound also returned an EC50 in data set [2] (Hepatitis C virus, Huh-7, 72 h) of 0.00404 µM.
In data set [2], “N-[17-[8-ethyl-2-(4-isopropylthiazole-2-yl)-7-methoxyquinolin-4-yloxy]-13-methyl-2,14-dioxo-3,13-diazatricyclo[13.3.0.0^4,6]octadec-7-ene-4-carbonyl](cyclo-propyl)sulfonamide [Compound 71]” displayed an EC50 of 10 µM.
As for `COc1ccc2c(O[C@H]3C[C@H]4C(=O)NCCCCC/C=C\[C@@H]5C[C@@]5(C(=O)NS(=O)(=O)C5CC5)NC(=O)[C@@H]4C3)cc(-c3nc(C(C)C)cs3)nc2c1C` [Compound 82], the inhibitory constant (Ki) in data set [1] was found to be 9.4 nM. For the same compound, in data set [2] (Hepatitis C virus, Huh-7, 72 h), a half-maximal response (EC50) required 8.32 µM.
`COc1ccc2c(O[C@@H]3C[C@H]4C(=O)N[C@]5(C(=O)NS(=O)(=O)C6CC6)C[C@H]5/C=C\CCCCCNC(=O)N4C3)cc(-c3nc(C(C)C)cs3)nc2c1C` (stereo in doubt) [Compound 91, N-[[18-[2-[4-(isopropyl)thiazol-2-yl]-7-methoxy-8-methylquinolin-4-yloxy]-2,15-dioxo-3,14,16-triazatricyclo[14.3.0.0^4,6]nonadec-7-en-4-yl]carbonyl]-(cyclopropyl)sulfonamide]: the inhibition constant Ki in data set [1] stood at 0.05 nM. For the same compound, the EC50 in data set [2] (Hepatitis C virus, Huh-7, 72 h) was 0.00854 µM.
As to `COc1ccc2c(O[C@@H]3C[C@H]4C(=O)N[C@]5(C(=O)NS(=O)(=O)C6CC6)C[C@H]5/C=C\CCCCN(C)C(=O)[C@@H]4C3)cc(-c3nc(C(C)C)cs3)nc2c1Cl` [Compound 56, N-[17-[8-chloro-2-(4-isopropylthiazole-2-yl)-7-methoxyquinolin-4-yloxy]-13-methyl-2,14-dioxo-3,13-diazatricyclo[13.3.0.0^4,6]-octadec-7-ene-4-carbonyl](cyclopropyl)sulfonamide], the EC50 in data set [2] (Hepatitis C virus, Huh-7, 72 h) turned out to be 0.00293 µM.
In data set [2] (Hepatitis C virus, Huh-7, 72 h), `COc1ccc2c(O[C@@H]3C[C@H]4C(=O)N[C@]5(C(=O)NS(=O)(=O)C6CC6)C[C@H]5/C=C\CCCCN(C)C(=O)[C@@H]4C3)cc(-c3nc(C(C)C)cs3)nc2c1F` [Compound 75] had an EC50 of 0.0575 µM.
The compound `CCOC(=O)C12CC1C=CCCCCN(C)C(=O)C1CC(Oc3cc(-c4cccc(C(C)C)n4)nc4c(C)c(OC)ccc34)CC1C(=O)N2` (centres unmarked) had a ring closure, isolated yield in data set [3] (from C=CCCCCN(C)C(=O)C1CC(Oc2cc(-c3cccc(C(C)C)n3)nc3c(C)c(OC)ccc23)CC1C(=O)NC1(C(=O)OCC)CC1C=C, Hoveyda-Grubbs I (3 portions), 17.0 h) of 66%.
Regarding `COc1ccc2c(O[C@@H]3C[C@H]4C(=O)N[C@]5(C(=O)NS(=O)(=O)C6(C)CC6)C[C@H]5/C=C\CCCCN(C)C(=O)[C@@H]4C3)cc(-c3nc(C(C)C)cs3)nc2c1Cl` [Compound 57, N-[17-[8-chloro-2-(4-isopropylthiazole-2-yl)-7-methoxy-quinolin-4-yloxy]-13-methyl-2,14-dioxo-3,13-diazatricyclo[13.3.0.0^4,6]octadec-7-ene-4-carbonyl] (1-methylcyclopropyl)sulfonamide], the Ki in data set [1] worked out at 0.3 nM. In data set [2] (Hepatitis C virus, Huh-7, 72 h), this compound showed an EC50 of 0.00187 µM.
`CCOC(=O)C12CC1C=CCCCCN(C)C(=O)C1CC(Oc3cc(-c4cccc(C)n4)nc4c(C)c(OC)ccc34)CC1C(=O)N2` (centres unmarked) yielded a ring closure, isolated yield in data set [3] (from C=CCCCCN(C)C(=O)C1CC(Oc2cc(-c3cccc(C)n3)nc3c(C)c(OC)ccc23)CC1C(=O)NC1(C(=O)OCC)CC1C=C, Hoveyda-Grubbs II, 1.48 mM, 16.0 h) of 58%.
For `CCc1c(OC)ccc2c(O[C@@H]3C[C@H]4C(=O)N[C@]5(C(=O)NS(=O)(=O)C6CC6)C[C@H]5/C=C\CCCCN(C)C(=O)[C@@H]4C3)cc(-c3nc(C(C)C)cs3)nc12` [Compound 72], it took 0.066 µM to reach a half-maximal effect in data set [2] (Hepatitis C virus, Huh-7, 72 h) (EC50).
Still for that read-out and setting: as for `COc1ccc2c(O[C@@H]3C[C@H]4C(=O)N[C@]5(C(=O)NS(=O)(=O)C6CC6)C[C@H]5/C=C\CCCCN(C)C(=O)[C@@H]4C3)cc(-n3ccc(C(C)C)n3)nc2c1C` [Compound 66, N-[17-[2-(3-isopropylpyrazol-1-yl)-7-methoxy-8-methyl-quinolin-4-yloxy]-13-methyl-2,14-dioxo-3,13-diazatricyclo[13.3.0.0^4,6]octadec-7-ene-4-carbonyl](cyclopropyl)sulfonamide], the figure is 0.0036 µM.
With “N-[18-[2-(4-isopropylthiazole-2-yl)-7-methoxy-8-methylquinolin-4-yl-oxy]-2,15-dioxo-3,14-diazatricyclo[14.3.0.0^4,6]nonadec-7-ene-4-carbonyl](cyclo-propyl)sulfonamide [Compound 81]”, the Ki in data set [1] amounted to 1000 nM. This compound also came in with an EC50 in data set [2] of 10 µM.
Regarding `COc1ccc2c(O[C@@H]3C[C@H]4C(=O)N[C@]5(C(=O)NS(=O)(=O)C6CC6)C[C@H]5/C=C\CCCCN(C)C(=O)[C@@H]4C3)cc(-c3cccc(C)n3)nc2c1C` [Compound 103, Cyclopropanesulfonic acid {17-[2-(6-methyl-2-pyridyl)-7-methoxy-8-methyl-quinolin-4-yloxy]-13-methyl-2,14-dioxo-3,13-diaza-tricyclo[13.3.0.0^4,6]octadec-7-ene-4-carbonyl}-amide], the EC50 in data set [2] (Hepatitis C virus, Huh-7, 72 h) was 0.0063 µM.

Source of the values: patent US8741926B2, “Macrocyclic inhibitors of hepatitis C virus” (Tibotec Pharmaceuticals Ltd., priority 2005, dated 2014).
